Laboratory results taken from publication PMC3319978 (Biochemical Pharmacology, 2011).
pIC50: −log10 of the molar value.

Key:
PDC-3 β-lactamase = PDC-3 β-lactamase (Pseudomonas aeruginosa, UniProt P24735, T105A); test: Inhibition of nitrocefin hydrolysis; type: biochemical
β-lactamases = settings: serve as excellent substrates of the β-lactamases; ref 27 (Fisher et al.); cited from earlier work
[1] = tested on: ATCC35218 E. coli blaTEM-1; test: Disc diffusion susceptibility testing; settings: 10 μg of ampicillin and each inhibitor, MH agar, 37 °C, 18 h

O=C(O)[C@H]1/C(=C/CO)O[C@@H]2CC(=O)N21 [Clavulanic acid, clavulanic acid]
pIC50 (PDC-3 β-lactamase): < 4.00

CC1(C)[C@H](C(=O)O)N2C(=O)[C@@H](NC(=O)Cc3ccccc3)[C@H]2S1(=O)=O [compound 19, penicillin G sulfone]
β-Lactamase inhibition (β-lactamases): poor β-lactamase inhibitors

CC1(C)S[C@@H]2[C@H](NC(=O)[C@H](N)c3ccccc3)C(=O)N2[C@H]1C(=O)O [Ampicillin, ampicillin]
Zone diameter [1]: 6 mm
